Records with an inconclusive call do not appear. Activity calls are given as the source filed them.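 The calls were made as follows: active = signal-lowering compounds whose fitted half-maximal concentration is at most ten times their highest tested dose; inconclusive = flat fit between -30 and -70%, or poor fit; inactive = flat within 30%, signal rising, or potency beyond limit.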
The compounds below were run against POS-1 (Caenorhabditis elegans) binding to mex-3 RNA (assay: C. elegans POS-1 RNA interaction disruptors – biochemical, fluorescence polarization, cherry-picked samples, set 2, counter-screen for MEX-5 RNA-binding inhibitor project, dose response (AID 493130;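 also: POS-1 as maltose binding protein fusion made in E. coli with FITC RNA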)). Settings: POS-1/mex-3 RNA fluorescence polarization, 1 h.

Compound	AC50
O=C(NNC(=O)c1ccccc1O)c1ccc(S(=O)(=O)Nc2ccccc2)cc1	4.17 µM
CC1C(=O)NN=C1C(=O)N/N=C\c1ccc(O)cc1O (configuration not stated)	9.42 µM
CCn1c(SCc2nc3sc(C(=O)O)c(C)c3c(=O)[nH]2)nc2ccccc21	10.3 µM
COC(=O)c1cc2c(-c3ccccc3)c(C)c3ccccn3c-2c1C(=O)OC	> 10 µM (inactive)
Nc1c(C(=O)c2cccs2)sc2nsc(SCCN3CCCCC3)c12	6.39 µM
C#CCN1C(=O)S/C(=C\c2cc3c(cc2OC)OCO3)C1=O	8.97 µM
CCc1cc[n+](-c2nc3ccccc3nc2[N-]S(=O)(=O)c2ccc(Br)s2)cc1	1.25 µM
Cc1c2ccccc2nc2c(F)c(NCCO)c(F)c(F)c12	0.854 µM

Same assay, conditions: POS-1/mex-3 RNA fluorescence polarization, 1 h; at 10 µM (top of the series)

Compound	activity change, negative = inhibition
Nc1ccc(Oc2ncccn2)cc1	inactive
O=c1c2ccccc2nc(/C=C/c2ccc([N+](=O)[O-])o2)n1-c1ccc(O)cc1	inactive
Cc1cc(C(=O)N/N=C/c2ccc(-c3ccc([N+](=O)[O-])cc3C)o2)n[nH]1	inactive
Nc1c(C(=O)Nc2ccccc2F)sc2nc(-c3cccnc3)ccc12	inactive
CCOc1ccc(/C=C2/C(=O)N(c3ccc(OC)cc3)C(=S)N2CC(=O)OC)cc1OCC	inactive
COc1ccc(CC(=O)NNc2ncnc3c2cnn3C)cc1OC	inactive
COc1cc2c(cc1O)CC1c3c(cc(O)c(OC)c3-2)CCN1C (configuration not stated)	inactive
CN(C)C(=O)Oc1ccc2c(c1)O/C(=C\c1ccccc1)C2=O	inactive
Cc1cc(-c2nnc(SCC(=O)Nc3nccs3)o2)no1	inactive
CCS(=O)(=O)c1ccc2oc(=O)c(/C=C(\O)c3ccc(Cl)cc3)nc2c1	inactive
COc1ccc(C(=O)NNC(=O)C(=O)/C=C(\O)c2ccc(C)cc2)cc1	inactive
O=C(O)c1ccc2c(c1)C(=O)/C(=C/c1ccccc1)C2=O	inactive
Cc1ccc(S(=O)(=O)c2cc3c(=O)n4ccccc4nc3n(C3CCCCC3)c2=N)cc1	inactive
CN=c1scc(-c2ccco2)n1/N=C/c1ccc(O)c(O)c1	inactive
COc1ccc(N=C2S/C(=C\c3cc(C)n(C)c3C)C(=O)N2C)cc1	inactive
COc1cc(/C=N/NC(=O)CNS(=O)(=O)c2ccc(C)cc2)cc(OC)c1OC	inactive
N=c1c(C(=O)NC2CCCC2)cc2c(=O)n3ccccc3nc2n1C1CCCC1	inactive
COc1cccc(C2C=C(c3cccs3)Nc3ncnn32)c1OC (configuration not stated)	inactive
CC1CN2C(c3ccc(Cl)cc3)=CSC2=N1 (configuration not stated)	inactive
CCOc1ccccc1C1NC(=O)NC(C)=C1C(=O)OCc1ccccc1 (configuration not stated)	inactive
CC1=CC2=NC(=O)/C(=C\c3ccc(-c4cccc(Cl)c4)o3)C(=N)N2O1	inactive

Compound	activity change, negative = inhibition
CCOC(=O)NNc1ccc2nonc2c1[N+](=O)[O-]	inactive
O=c1cc(-c2ccccc2)oc2ccc(O)cc12	inactive
CC1CN2C(c3ccc([N+](=O)[O-])cc3)=CSC2=N1 (configuration not stated)	inactive
CN1CCc2c(sc(NC(=O)c3ccc(S(=O)(=O)N4CCCCCC4)cc3)c2C(N)=O)C1	inactive
O=C(O)CCN1C(=O)/C(=C\c2ccc(OCc3ccccc3)c(OCc3ccccc3)c2)SC1=S	inactive
Cc1ccc(N2C(=O)c3ccc(C(=O)O)cc3C2=O)cc1C	inactive
Cc1snc2sc(C(=O)c3ccc(Br)cc3)c(N)c12	inactive
CCc1ccc(S(=O)(=O)Nc2ccc(O)c3c(=O)cc(-c4ccccc4Cl)oc23)cc1	inactive
O=c1[nH]cnc2c1C(c1ccccc1[N+](=O)[O-])c1c(nc[nH]c1=O)O2	inactive
CC(=O)NNc1ncnc2ccccc12	inactive
Cc1ccc(-c2nc(C=Nc3ccccc3)c(O)o2)cc1	inactive
Cc1c(C(=O)O)c(C(=O)O)nc2ccc(N3CCOCC3)cc12	inactive
CCCCn1c(N)c(N(CCOC)C(=O)c2ccc(Br)o2)c(=O)[nH]c1=O	inactive
CN(C)c1ncnc2c1NC1=C(S2)C(=NCCCC(=O)O)CC(C)(C)C1	inactive
COc1cc(N2CCCC2)c(OC)cc1/C=C(/C#N)c1cccc(Br)c1	inactive
CCCCCC(=O)N(Cc1ccccc1)c1c(N)n(CCOC)c(=O)[nH]c1=O	inactive
CCOC(=O)C1Cc2ccccc2C(=O)O1 (configuration not stated)	inactive
CNC(=O)c1c(NC(=O)c2nc3ccccc3s2)sc2c1CCC2	inactive
O=C(N/N=C/c1cccnc1)c1ccc(O)cc1	inactive
COc1ccc(NC(=O)c2sc3nc(Cc4ccccc4)cc(C(F)(F)F)c3c2N)cc1OC	inactive
Cc1ccc(Nc2nc(-c3ccc(C)cc3)c(CC(=O)O)s2)cc1	inactive

Compound	activity change, negative = inhibition
O=c1nc(-c2ccccc2)c2cc(Br)ccc2[nH]1	inactive
COc1ccc(NC(=O)c2coc(C)c2)cc1	inactive
CC1=Nc2ccc(C)cc2/C1=C/c1c(N)n2c(S(=O)(=O)C(C)C)nsc2nc1=O	inactive
N#C/C(=N\Nc1cccc(C(F)(F)F)c1)C(=O)c1ccsc1	inactive
CN(N=Nc1ccc([N+](=O)[O-])cc1)c1ccccc1	inactive
CCCCCOP(=O)(OCCCCC)C1(NS(=O)(=O)c2ccccc2)C=CC(=O)c2ccccc21 (configuration not stated)	inactive
COc1ccc(OC)c(/C=C/C(=O)Nc2ccc(OC)nc2)c1	inactive
Cc1ccc(C(=O)N/C(=C\c2ccc(-c3ccc(Cl)cc3)o2)C(=O)NCCCN(C)C)cc1	inactive
O=C1N=C(N2C=CC(=C3C=CNC=C3)C=C2)/C(=C/N=NC(=O)c2ccccc2)S1	inactive
COc1ccc(-n2c(C)nc3cc(C(=O)O)ccc32)cc1	inactive
CCOC(=O)c1c(-c2ccc(C)o2)csc1NC(=S)NC(=O)c1cccs1	inactive
COc1cc(CCC(=O)Nc2ccc(Cl)c(C(F)(F)F)c2)cc(OC)c1OC	inactive
CN(C)c1ccc(/C=C/c2nc3ccccc3c(=O)[nH]2)cc1	inactive
Cc1cc(C)c2ccc(=S)[nH]c2n1	inactive
FC(F)(F)c1ccc(Cl)c(-n2c(-c3cc(-c4ccco4)[nH]n3)n[nH]c2=S)c1	inactive
COC/C=C/C1=CC2=CC(=O)C(C)(O)C(=O)C2=CO1 (configuration not stated)	inactive
Cc1ccccc1C(=O)N=c1ccn(-c2nc3ccccc3nc2NS(=O)(=O)c2ccccc2)cc1	inactive
CCOC(=O)/C=c1\s/c(=C\c2ccc(-c3ccccc3)cc2)c(=O)n1CC(=O)NCc1ccc2c(c1)OCO2	inactive
Cc1ccc(C)c(NC(=O)CCC(=O)NNC(=S)Nc2ccccc2)c1	inactive
COc1cccc(CNC23CC4CC(CC(C4)C2)C3)c1OCc1ccccc1	inactive
CCOC(=O)c1sc2nc(C)[nH]c(=S)c2c1C	inactive

Compound	activity change, negative = inhibition
Cc1ccc2c(c1)c(C1=NC(=S)NC1=O)c(O)n2C	inactive
COc1cc(OC)c2ccc(=O)oc2c1C(CC(=O)N1CCCC1)c1ccc(N(C)C)cc1 (configuration not stated)	inactive
Cc1ccccc1S(=O)(=O)NNC(=O)C(=O)NNc1ccccn1	inactive
N#CC1=C(N)Oc2c(O)cc3ccccc3c2C1c1ccsc1 (configuration not stated)	inactive
Cc1ccc(/C=C2/NC(=O)N(Cc3ccccc3)C2=O)s1	inactive
FC(F)(F)c1nc2cc3nc4ccccc4[nH]c3cc2n1	inactive
CN1C(=O)/C(=C/c2cn(CC(=O)N3CCCCC3)c3ccccc23)c2ccccc21	inactive
O=C1C(Cl)=C(NC2CCCCC2)C(=O)N1c1ccc(Cl)cc1	inactive
COc1ccc(/C=N/NC(=S)Nc2cccc(C(=O)O)c2)cc1	inactive
CSc1ccc(C(c2c(C(=O)O)[nH]c3ccccc23)c2c(C(=O)O)[nH]c3ccccc23)cc1	inactive
CC(=O)Nc1ccc(N=NC2C(=O)N(C(N)=S)N=C2C)cc1 (configuration not stated)	inactive
O=c1c2ccccc2nc(/C=C/c2ccc([N+](=O)[O-])cc2)n1CCCO	inactive
COc1nc(N/N=C/c2ccc(-c3ccccc3[N+](=O)[O-])o2)nc(N2CCOCC2)n1	inactive
CCOC(=O)CCCc1sc(N)nc1-c1[nH]c(=O)[nH]c1C	inactive
COc1ccc(C(CC(=O)N2CCCC2)c2c(OC)cc(OC)c3ccc(=O)oc23)cc1 (configuration not stated)	inactive
O=C(O)CCCC(=O)NNc1nc(-c2ccccc2)c2cc(Cl)ccc2n1	inactive
O=c1cc[nH]c2c1ccc1c(=O)cc[nH]c12	inactive
O=C(C[n+]1ccc(C(=O)N/N=C/c2ccc(OCc3ccccc3)cc2)cc1)c1ccccc1	inactive
Cn1c(=O)n(C)c2cc(/C=N/N=C3/NC(=O)C(CC(=O)O)S3)ccc21 (configuration not stated)	inactive
COC(=O)c1ccccc1-c1ccc(C(c2c(C)[nH][nH]c2=O)c2c(C)[nH][nH]c2=O)o1	inactive
CCN(Cc1ccccc1)c1ccc(/C=C(\C#N)c2ccccn2)cc1	inactive
